For this experiment, the system named is BDF1 mice, B16 melanoma ip, median survival T/C. Nature of the experiment: NCI In Vivo Anticancer Drug Screen. Data for tumor model B16 Melanoma (intraperitoneal) in B6D2F1 (BDF1) mice. The conditions noted are these: endpoint: median survival time, higher = longer survival. The essentials:
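Compounds were tested in mice carrying transplantable tumors. Survival or tumor size was recorded, and each value is the treated-group measurement (T) divided by that of the vehicle-treated control group (C).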

Where [1] appears, read: dose: 50.0 mg/kg/injection, schedule: Q04DX003 (ip), vehicle: Klucel (hydroxypropylcellulose) (HPC).
Setting [2] is: dose: 100.0 mg/kg/injection, schedule: Q04DX003 (ip), vehicle: Klucel (hydroxypropylcellulose) (HPC).
Where [3] appears, read: dose: 200.0 mg/kg/injection, schedule: Q04DX003 (ip), vehicle: Klucel (hydroxypropylcellulose) (HPC).
Setting [4] is: dose: 25.0 mg/kg/injection, schedule: Q01DX009 (ip), vehicle: saline with Tween-80.
[5] abbreviates: dose: 50.0 mg/kg/injection, schedule: Q01DX009 (ip), vehicle: saline with Tween-80.
Setting [6] is: dose: 100.0 mg/kg/injection, schedule: Q01DX009 (ip), vehicle: saline with Tween-80.
Setting [7] is: dose: 12.5 mg/kg/injection, schedule: Q01DX009 (ip), vehicle: saline with Tween-80.
The mark [8] stands for this setting: dose: 12.5 mg/kg/injection, schedule: Q01DX009 (ip), vehicle: Klucel (hydroxypropylcellulose) (HPC).
[9] abbreviates: dose: 50.0 mg/kg/injection, schedule: Q01DX009 (ip), vehicle: Klucel (hydroxypropylcellulose) (HPC).
[10] abbreviates: dose: 100.0 mg/kg/injection, schedule: Q01DX009 (ip), vehicle: Klucel (hydroxypropylcellulose) (HPC).
Where [11] appears, read: dose: 200.0 mg/kg/injection, schedule: Q01DX009 (ip), vehicle: Klucel (hydroxypropylcellulose) (HPC).
The mark [12] stands for this setting: dose: 200.0 mg/kg/injection, schedule: Q01DX009 (ip), vehicle: saline with Tween-80.

Several values for one entry are separate records, joined by “and”; a condition that tells them apart may be missing. Equal entries are not always repeated. Toxic doses and inconclusive results are not listed.

Consider `Cc1cc(NC(=O)NCc2ccc(N3C(N)=NC(N)=NC3(C)C)cc2)ccc1S(=O)(=O)F`, for which the T/C is 97 % of control (dose: 25.0 mg/kg/injection, schedule: Q04DX003 (ip), vehicle: saline); 109 % of control (dose: 50.0 mg/kg/injection, schedule: Q04DX003 (ip), vehicle: saline); 122 % of control (dose: 400.0 mg/kg/injection, schedule: Q04DX003 (ip), vehicle: saline).
Consider `CC(C)n1c2c([n+](C)c1/C=C/c1ccccc1)C(=O)c1ccccc1C2=O`, for which the T/C (dose: 0.13 mg/kg/injection, schedule: Q01DX009 (ip), vehicle: saline) is 94 % of control; the T/C (dose: 0.25 mg/kg/injection, schedule: Q01DX009 (ip), vehicle: saline) was 96 % of control; the T/C (dose: 0.5 mg/kg/injection, schedule: Q01DX009 (ip), vehicle: saline) was 100 % of control; the T/C (dose: 1.0 mg/kg/injection, schedule: Q01DX009 (ip), vehicle: saline with Tween-80) was 94 % of control; the T/C (dose: 1.0 mg/kg/injection, schedule: Q01DX009 (ip), vehicle: saline) is 102 % of control; the T/C (dose: 2.0 mg/kg/injection, schedule: Q01DX009 (ip), vehicle: saline) is 90 % of control. Also, the T/C (dose: 4.0 mg/kg/injection, schedule: Q01DX009 (ip), vehicle: saline) was 97 % of control.
On to `Nc1nc(-c2ccccc2N=NN2CCCCC2)nc2ccccc12`, for which the T/C reads like this: under setting [1], 97 % of control; under setting [2], 91 % of control; under setting [3], 113 % of control.
As to `CC(=O)OCC1OC(OC(C)=O)C(NC(=O)N(CCCl)N=O)C(OC(C)=O)C1OC(C)=O` (stereo unspecified), the T/C was 162 % of control (dose: 0.75 mg/kg/injection, schedule: Q01DX009 (ip), vehicle: Klucel (hydroxypropylcellulose) (HPC)); 152 % of control (dose: 1.0 mg/kg/injection, schedule: Q01DX009 (ip), vehicle: Klucel (hydroxypropylcellulose) (HPC)); 180 % of control (dose: 1.5 mg/kg/injection, schedule: Q01DX009 (ip), vehicle: Klucel (hydroxypropylcellulose) (HPC)); 188 % of control and 287 % of control (dose: 2.0 mg/kg/injection, schedule: Q01DX009 (ip), vehicle: Klucel (hydroxypropylcellulose) (HPC)); 208 % of control (dose: 3.0 mg/kg/injection, schedule: Q01DX009 (ip), vehicle: Klucel (hydroxypropylcellulose) (HPC)); 232 % of control (dose: 4.0 mg/kg/injection, schedule: Q01DX009 (ip), vehicle: Klucel (hydroxypropylcellulose) (HPC)).
As for `CCC(C)C(C(=O)OCCN(C)C)c1ccccc1` (stereo unspecified), the T/C under setting [4] was 100 % of control, the T/C under setting [5] is 112 % of control and the T/C under setting [6] is 99 % of control.
Take `CC(=O)Nc1ccc(CCCCc2cccc(C(=N)N)c2)cc1`: the T/C is, setting by setting: (dose: 2.3 mg/kg/injection, schedule: Q04DX003 (ip), vehicle: saline with Tween-80) 86 % of control; (dose: 4.6 mg/kg/injection, schedule: Q04DX003 (ip), vehicle: saline with Tween-80) 86 % of control; (dose: 9.3 mg/kg/injection, schedule: Q04DX003 (ip), vehicle: saline with Tween-80) 95 % of control; under setting [7], 97 % of control; (dose: 18.75 mg/kg/injection, schedule: Q04DX003 (ip), vehicle: saline with Tween-80) 116 % of control; under setting [4], 97 % of control.
Turning to `CO/C(=C\c1ccc(OC)cc1)C(=O)O`, the T/C was 94 % of control under setting [1], 100 % of control under setting [2] and 111 % of control under setting [3].
For `CC12C=CC(CC1)C2OC(=O)c1ccccc1C(=O)O` (stereo unspecified), the T/C under setting [8] is 108 % of control, the T/C under setting [9] is 94 % of control, the T/C under setting [10] is 100 % of control and the T/C under setting [11] was 94 % of control.
Regarding `CC1CCC(O)C1O` (stereo unspecified), the T/C is 120 % of control (dose: 100.0 mg/kg/injection, schedule: Q01DX009 (ip), vehicle: saline); 120 % of control (dose: 200.0 mg/kg/injection, schedule: Q01DX009 (ip), vehicle: saline); 122 % of control (dose: 400.0 mg/kg/injection, schedule: Q01DX009 (ip), vehicle: saline).
Turning to `CC(=O)NC1=C(N2CC2C)C(=O)C(NC(C)=O)=C(N2CC2C)C1=O` (stereo unspecified), the T/C runs as follows: (dose: 0.62 mg/kg/injection, schedule: Q01DX009 (ip), vehicle: saline) 89 % of control; (dose: 1.25 mg/kg/injection, schedule: Q01DX009 (ip), vehicle: saline) 105 % of control.
Take `O=[N+]([O-])c1cc(Cl)cc2c1nc(NCCO)c1ccccc12`: the T/C reads like this: under setting [7], 97 % of control; under setting [4], 97 % of control.
`ClC(Cl)=[C](Cl)[Hg][C](Cl)=C(Cl)Cl`: the T/C runs as follows: (dose: 3.13 mg/kg/injection, schedule: Q01DX009 (ip), vehicle: Klucel (hydroxypropylcellulose) (HPC)) 120 % of control; (dose: 6.25 mg/kg/injection, schedule: Q01DX009 (ip), vehicle: Klucel (hydroxypropylcellulose) (HPC)) 99 % of control; under setting [8], 92 % of control.
As to `CN(CCOc1ccccc1O)CCOc1ccccc1O`, the T/C is 111 % of control under setting [10] and 105 % of control under setting [11].
For the compound `CC(C)CC(NC(=O)CNC(=O)/C=C/c1ccco1)C(N)=O` (stereo unspecified), the T/C reads like this: (dose: 6.25 mg/kg/injection, schedule: Q01DX009 (ip), vehicle: saline with Tween-80) 105 % of control; (dose: 6.25 mg/kg/injection, schedule: Q01DX009 (ip), vehicle: saline) 106 % of control; under setting [7], 105 % of control; (dose: 12.5 mg/kg/injection, schedule: Q01DX009 (ip), vehicle: saline) 100 % of control; under setting [4], 110 % of control; (dose: 25.0 mg/kg/injection, schedule: Q01DX009 (ip), vehicle: saline) 95 % of control. For the same compound, the T/C reads like this: under setting [5], 100 % of control and 105 % of control; (dose: 50.0 mg/kg/injection, schedule: Q01DX009 (ip), vehicle: saline) 97 % of control; under setting [6], 92 % of control; under setting [12], 98 % of control.
For `Cc1ccc(NC(=S)NC(Cc2ccccc2)c2ccccc2)cc1` (stereo unspecified), the T/C reads like this: under setting [8], 102 % of control; (dose: 25.0 mg/kg/injection, schedule: Q01DX009 (ip), vehicle: Klucel (hydroxypropylcellulose) (HPC)) 100 % of control; (dose: 37.5 mg/kg/injection, schedule: Q04DX003 (ip), vehicle: Klucel (hydroxypropylcellulose) (HPC)) 100 % of control; under setting [9], 100 % of control; (dose: 75.0 mg/kg/injection, schedule: Q04DX003 (ip), vehicle: Klucel (hydroxypropylcellulose) (HPC)) 92 % of control; (dose: 150.0 mg/kg/injection, schedule: Q04DX003 (ip), vehicle: Klucel (hydroxypropylcellulose) (HPC)) 100 % of control.
Regarding `CC(C)CC(NC(=O)OCc1ccccc1)C(=O)O` (stereo unspecified), the T/C by setting is: (dose: 100.0 mg/kg/injection, schedule: Q04DX003 (ip), vehicle: saline with Tween-80) 102 % of control; under setting [12], 106 % of control; (dose: 400.0 mg/kg/injection, schedule: Q01DX009 (ip), vehicle: saline with Tween-80) 121 % of control.

Source of the values: PubChem BioAssay AID192 (DTP/NCI, 2004).
